# Target: T1, Btα1/Btα8/Btβ1 nAChR (Bombus terrestris, UniProt A0A9B0BGM1+A0A9B0F4H3+A0A9B2JDZ7)
# T1 sequence (A0A9B0F4H3 44-615): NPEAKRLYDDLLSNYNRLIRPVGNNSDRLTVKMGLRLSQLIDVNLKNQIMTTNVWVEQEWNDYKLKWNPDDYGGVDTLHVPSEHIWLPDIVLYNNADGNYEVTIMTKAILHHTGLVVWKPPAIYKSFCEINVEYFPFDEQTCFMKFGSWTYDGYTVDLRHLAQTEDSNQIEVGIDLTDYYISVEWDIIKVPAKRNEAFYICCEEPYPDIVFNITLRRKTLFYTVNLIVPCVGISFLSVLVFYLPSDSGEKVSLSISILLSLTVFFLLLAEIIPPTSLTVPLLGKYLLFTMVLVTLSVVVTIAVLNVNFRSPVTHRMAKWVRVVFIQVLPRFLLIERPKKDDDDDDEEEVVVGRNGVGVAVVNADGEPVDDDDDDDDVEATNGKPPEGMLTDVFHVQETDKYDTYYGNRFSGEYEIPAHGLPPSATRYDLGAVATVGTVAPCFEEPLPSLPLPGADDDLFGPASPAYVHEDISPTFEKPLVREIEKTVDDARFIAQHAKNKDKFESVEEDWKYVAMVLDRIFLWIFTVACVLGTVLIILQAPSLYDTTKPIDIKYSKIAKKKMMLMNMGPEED
# T1 sequence (A0A9B2JDZ7 22-535): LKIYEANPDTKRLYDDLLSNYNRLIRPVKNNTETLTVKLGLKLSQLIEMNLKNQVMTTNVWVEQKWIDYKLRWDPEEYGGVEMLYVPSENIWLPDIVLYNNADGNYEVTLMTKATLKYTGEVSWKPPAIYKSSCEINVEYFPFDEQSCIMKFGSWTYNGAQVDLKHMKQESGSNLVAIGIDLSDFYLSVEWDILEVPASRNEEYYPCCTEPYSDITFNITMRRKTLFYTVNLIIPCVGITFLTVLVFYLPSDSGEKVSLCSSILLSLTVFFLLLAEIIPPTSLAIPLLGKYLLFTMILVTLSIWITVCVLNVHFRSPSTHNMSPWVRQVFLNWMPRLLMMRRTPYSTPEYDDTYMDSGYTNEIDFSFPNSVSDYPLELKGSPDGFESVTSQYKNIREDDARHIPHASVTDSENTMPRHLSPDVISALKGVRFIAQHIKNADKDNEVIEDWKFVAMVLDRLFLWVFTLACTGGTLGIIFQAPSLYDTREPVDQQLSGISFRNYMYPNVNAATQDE
# T1 sequence (A0A9B0BGM1 19-519): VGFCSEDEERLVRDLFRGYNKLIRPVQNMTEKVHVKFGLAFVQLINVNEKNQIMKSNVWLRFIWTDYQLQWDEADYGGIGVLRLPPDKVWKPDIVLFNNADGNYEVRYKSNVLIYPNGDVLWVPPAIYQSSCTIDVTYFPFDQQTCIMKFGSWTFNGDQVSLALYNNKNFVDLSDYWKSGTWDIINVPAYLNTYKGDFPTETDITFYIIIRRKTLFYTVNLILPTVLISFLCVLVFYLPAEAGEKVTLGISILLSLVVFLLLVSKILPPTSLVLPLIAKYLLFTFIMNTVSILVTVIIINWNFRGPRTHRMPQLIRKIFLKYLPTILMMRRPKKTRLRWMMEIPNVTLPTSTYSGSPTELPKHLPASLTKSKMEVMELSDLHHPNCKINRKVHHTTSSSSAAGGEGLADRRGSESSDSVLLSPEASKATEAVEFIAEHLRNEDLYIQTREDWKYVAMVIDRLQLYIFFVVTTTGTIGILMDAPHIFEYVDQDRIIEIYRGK
# Assay: two-electrode voltage clamp of Xenopus oocytes, agonist concentration-response
# Assay type: cell-based
row,SMILES,EC50 [nM]
1,CN/C(=N\[N+](=O)[O-])NCc1cnc(Cl)s1 [clothianidin],13.5
2,N#C/N=C1\SCCN1Cc1ccc(Cl)nc1 [thiacloprid],51.3
3,O=[N+]([O-])NC1=NCCN1Cc1ccc(Cl)nc1 [imidacloprid],25.1
